Where two headings read alike, the source gives them in different places.
System: RS4;11 cells
Assay: RS4;11 cell viability assay (CellTiter Glo);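 further: acute lymphoblastic leukemia line RS4,11, EC50 derived from percentage of viable cells after treatment relative to untreated controls, cell killing taken as a measure of Bcl-2 inhibition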
Type: cell-based, human
Conditions: Homo sapiens, read-out: RS4
[1] = RS4-11, 48 h, 50,000 cells per well, 10% human serum, 48 hours, 11 EC50 Values
[2] = RS4-11, Table 4, selected compounds in U.S. Pat. Application No. 12/631404, 11 EC50
[3] = RS4-11, Table 5, direct comparison Z=N with corresponding analogs Z=C, 11 EC50

Description: The acute lymphoblastic leukemia (ALL) cell line RS4;11 was used as the primary human cell line to assess the cellular activity of Bcl-2 selective agents in vitro and their efficacy in vivo.
Cell cytotoxicity EC50 values were assessed using CellTiter Glo (Promega) according to the manufacturer's recommendations. The EC50 values were determined as a percentage of viable cells following treatment compared to the untreated control cells.

Work on CO[C@H]1CC[C@@H](CNc2ccc(S(=O)(=O)NC(=O)c3ccc(N4CCN(CC5=C(c6ccc(Cl)cc6)CC(C)(C)CC5)CC4)cc3Oc3cnc4[nH]ccc4c3)cc2[N+](=O)[O-])CC1 [Example 29, Cis-4-(4-{[2-(4-chlorophenyl)-4,4-dimethylcyclohex-1-en-1-yl]methyl}piperazin-1-yl)-N-[(4-{[(4-methoxycyclohexyl)methyl]amino}-3-nitrophenyl)sulfonyl]-2-(1H-pyrrolo[2,3-b]pyridin-5-yloxy)benzamide] yielded an EC50 [1] of 20.5 nM.

For CCN1CCOCC1COc1ncc(S(=O)(=O)NC(=O)c2ccc(N3CCN(CC4=C(c5ccc(Cl)cc5)CC(C)(C)CC4)CC3)cc2Oc2cnc3[nH]ccc3c2)cc1Br (centres unmarked) [Example 102, N-({5-bromo-6-[(4-ethylmorpholin-3-yl)methoxy]pyridin-3-yl}sulfonyl)-4-(4-{[2-(4-chlorophenyl)-4,4-dimethylcyclohex-1-en-1-yl]methyl}piperazin-1-yl)-2-(1H-pyrrolo[2,3-b]pyridin-5-yloxy)benzamide], the EC50 [1] was 622 nM.

Compound CC1(C)CCC(CN2CCN(c3ccc(C(=O)NS(=O)(=O)c4ccc(NC5CCN(CC(F)F)CC5)c([N+](=O)[O-])c4)c(Oc4cnc5[nH]ccc5c4)c3)CC2)=C(c2ccc(Cl)cc2)C1 [Example 97, 4-(4-{[2-(4-chlorophenyl)-4,4-dimethylcyclohex-1-en-1-yl]methyl}piperazin-1-yl)-N-[(4-{[1-(2,2-difluoroethyl)piperidin-4-yl]amino}-3-nitrophenyl)sulfonyl]-2-(1H-pyrrolo[2,3-b]pyridin-5-yloxy)benzamide] has an EC50 [1] of 55.6 nM.

CC1(C)CC(c2ccc(Cl)cc2)=C(CN2CCN(c3ccc(C(=O)NS(=O)(=O)c4ccc(N[C@H]5CC[C@H](N6CCOCC6)CC5)c(S(=O)(=O)C(F)(F)F)c4)c(Oc4cnc5[nH]ccc5c4)c3)CC2)CO1 [Example 44, Trans-4-(4-{[4-(4-chlorophenyl)-6,6-dimethyl-5,6-dihydro-2H-pyran-3-yl]methyl}piperazin-1-yl)-N-({4-[(4-morpholin-4-ylcyclohexyl)amino]-3-[(trifluoromethyl)sulfonyl]phenyl}sulfonyl)-2-(1H-pyrrolo[2,3-b]pyridin-5-yloxy)benzamide] was tested, and the EC50 [1] was 53.1 nM.

With CC1(C)CCC(CN2CCN(c3ccc(C(=O)NS(=O)(=O)c4ccc(OCC5(F)CCOCC5)c([N+](=O)[O-])c4)c(Oc4cnc5[nH]ccc5c4)c3)CC2)=C(c2ccc(Cl)cc2)C1 [Example 37, 4-(4-{[2-(4-chlorophenyl)-4,4-dimethylcyclohex-1-en-1-yl]methyl}piperazin-1-yl)-N-({4-[(4-fluorotetrahydro-2H-pyran-4-yl)methoxy]-3-nitrophenyl}sulfonyl)-2-(1H-pyrrolo[2,3-b]pyridin-5-yloxy)benzamide] the EC50 [1] was 1.18 nM.

For CC1(C)CCC(CN2CCN(c3ccc(C(=O)NS(=O)(=O)c4cnc(OCC5CCOCC5)c(F)c4)c(Oc4cnc5[nH]ccc5c4)c3)CC2)=C(c2ccc(Cl)cc2)C1 [Example 293, 4-(4-{[2-(4-chlorophenyl)-4,4-dimethylcyclohex-1-en-1-yl]methyl}piperazin-1-yl)-N-{[5-fluoro-6-(tetrahydro-2H-pyran-4-ylmethoxy)pyridin-3-yl]sulfonyl}-2-(1H-pyrrolo[2,3-b]pyridin-5-yloxy)benzamide], the EC50 [1] was 287 nM.

In the case of CC1(C)CCC(CN2CCN(c3ccc(C(=O)NS(=O)(=O)c4ccc(NC5CCN(S(C)(=O)=O)CC5)c([N+](=O)[O-])c4)c(Oc4cnc5[nH]ccc5c4)c3)CC2)=C(c2ccc(Cl)cc2)C1 [Example 80, 4-(4-{[2-(4-chlorophenyl)-4,4-dimethylcyclohex-1-en-1-yl]methyl}piperazin-1-yl)-N-[(4-{[1-(methylsulfonyl)piperidin-4-yl]amino}-3-nitrophenyl)sulfonyl]-2-(1H-pyrrolo[2,3-b]pyridin-5-yloxy)benzamide], the EC50 [1] is reported as 68.6 nM.

In the case of CC1(C)CCC(CN2CCN(c3ccc(C(=O)NS(=O)(=O)c4ccc(NC5CCN(C6CCOC(C)(C)C6)CC5)c([N+](=O)[O-])c4)c(Oc4cnc5[nH]ccc5c4)c3)CC2)=C(c2ccc(Cl)cc2)C1 (centres unmarked) [Example 141, 4-(4-{[2-(4-chlorophenyl)-4,4-dimethylcyclohex-1-en-1-yl]methyl}piperazin-1-yl)-N-[(4-{[1-(2,2-dimethyltetrahydro-2H-pyran-4-yl)piperidin-4-yl]amino}-3-nitrophenyl)sulfonyl]-2-(1H-pyrrolo[2,3-b]pyridin-5-yloxy)benzamide], the EC50 [1] is reported as 20.4 nM.

Work on CC1(C)CCC(CN2CCN(c3ccc(C(=O)NS(=O)(=O)c4ccc(NC5CN(C6CCOC6)C5)c([N+](=O)[O-])c4)c(Oc4cnc5[nH]ccc5c4)c3)CC2)=C(c2ccc(Cl)cc2)C1 (centres unmarked) [Example 117, 4-(4-{[2-(4-chlorophenyl)-4,4-dimethylcyclohex-1-en-1-yl]methyl}piperazin-1-yl)-N-({3-nitro-4-[(1-tetrahydrofuran-3-ylazetidin-3-yl)amino]phenyl}sulfonyl)-2-(1H-pyrrolo[2,3-b]pyridin-5-yloxy)benzamide] yielded an EC50 [1] of 18.2 nM.

CC1(C)CCC(CN2CCN(c3ccc(C(=O)NS(=O)(=O)c4cnc(OCC5CCN(CC#N)CC5)c(Cl)c4)c(Oc4cnc5[nH]ccc5c4)c3)CC2)=C(c2ccc(Cl)cc2)C1 [Example 253, N-[(5-chloro-6-{[1-(cyanomethyl)piperidin-4-yl]methoxy}pyridin-3-yl)sulfonyl]-4-(4-{[2-(4-chlorophenyl)-4,4-dimethylcyclohex-1-en-1-yl]methyl}piperazin-1-yl)-2-(1H-pyrrolo[2,3-b]pyridin-5-yloxy)benzamide] gave an EC50 [1] of 49.6 nM.

In the case of CC1(C)CC(c2ccc(Cl)cc2)=C(CN2CCN(c3ccc(C(=O)NS(=O)(=O)c4ccc(N[C@H]5CC[C@H](N6CCOCC6)CC5)c([N+](=O)[O-])c4)c(Oc4cnc5[nH]ccc5c4)c3)CC2)CO1 [Example 33, Trans-4-(4-{[4-(4-chlorophenyl)-6,6-dimethyl-5,6-dihydro-2H-pyran-3-yl]methyl}piperazin-1-yl)-N-({4-[(4-morpholin-4-ylcyclohexyl)amino]-3-nitrophenyl}sulfonyl)-2-(1H-pyrrolo[2,3-b]pyridin-5-yloxy)benzamide], the EC50 [1] is reported as 7.11 nM.

Compound O=C(NS(=O)(=O)c1ccc(NCC2CCOCC2)c([N+](=O)[O-])c1)c1ccc(N2CCN(CC3=C(c4ccc(Cl)cc4)CCC4(CCN(C(CF)CF)CC4)C3)CC2)cc1Oc1cnc2[nH]ccc2c1 [Example 265, 4-(4-{[9-(4-chlorophenyl)-3-(1,3-difluoropropan-2-yl)-3-azaspiro[5.5]undec-8-en-8-yl]methyl}piperazin-1-yl)-N-({3-nitro-4-[(tetrahydro-2H-pyran-4-ylmethyl)amino]phenyl}sulfonyl)-2-(1H-pyrrolo[2,3-b]pyridin-5-yloxy)benzamide] has an EC50 [1] of 7.17 nM.

COC1(Cc2ccccc2-c2ccc(Cl)cc2)CCN(c2ccc(C(=O)NS(=O)(=O)c3ccc(NCC4CCOCC4)c([N+](=O)[O-])c3)c(Oc3cnc4[nH]ccc4c3)c2)CC1 [Example 264, 4-{4-[(4′-chlorobiphenyl-2-yl)methyl]-4-methoxypiperidin-1-yl}-N-({3-nitro-4-[(tetrahydro-2H-pyran-4-ylmethyl)amino]phenyl}sulfonyl)-2-(1H-pyrrolo[2,3-b]pyridin-5-yloxy)benzamide] gave an EC50 [1] of 689 nM.

C#Cc1cc(S(=O)(=O)NC(=O)c2ccc(N3CCN(CC4=C(c5ccc(Cl)cc5)CC(C)(C)CC4)CC3)cc2Oc2cnc3[nH]ccc3c2)cnc1OCC1CCOCC1 [Example 69, 4-(4-{[2-(4-chlorophenyl)-4,4-dimethylcyclohex-1-en-1-yl]methyl}piperazin-1-yl)-N-{[5-ethynyl-6-(tetrahydro-2H-pyran-4-ylmethoxy)pyridin-3-yl]sulfonyl}-2-(1H-pyrrolo[2,3-b]pyridin-5-yloxy)benzamide] was tested, and the EC50 [1] was 1720 nM.

CC1(C)CCC(CN2CCN(c3ccc(C(=O)NS(=O)(=O)c4ccc(N[C@H]5CC[C@H](N6CCOCC6)CC5)c([N+](=O)[O-])c4)c(Oc4ccc5[nH]ccc5c4)c3)CC2)=C(c2ccc(Cl)cc2)C1 [Example 19, Trans-4-(4-{[2-(4-chlorophenyl)-4,4-dimethylcyclohex-1-en-1-yl]methyl}piperazin-1-yl)-2-(1H-indol-5-yloxy)-N-({4-[(4-morpholin-4-ylcyclohexyl)amino]-3-nitrophenyl}sulfonyl)benzamide] gave an EC50 [1] of 465 nM, an EC50 [2] of 465 nM and an EC50 [3] of 465 nM.

Work on CC1(C)CC(c2ccc(Cl)cc2)=C(CN2CCN(c3ccc(C(=O)NS(=O)(=O)c4ccc(NCC5CCOCC5)c([N+](=O)[O-])c4)c(Oc4ccc5[nH]ccc5c4)c3)CC2)CO1 [Example 23, 4-(4-{[4-(4-chlorophenyl)-6,6-dimethyl-5,6-dihydro-2H-pyran-3-yl]methyl}piperazin-1-yl)-2-(1H-indol-5-yloxy)-N-({3-nitro-4-[(tetrahydro-2H-pyran-4-ylmethyl)amino]phenyl}sulfonyl)benzamide] yielded an EC50 [1] of 45 nM, an EC50 [2] of 45 nM and an EC50 [3] of 45 nM.

Work on CC1(C)CCC(CN2CCN(c3ccc(C(=O)NS(=O)(=O)c4cnc(OCC5CCc6nccn6C5)c(Cl)c4)c(Oc4cnc5[nH]ccc5c4)c3)CC2)=C(c2ccc(Cl)cc2)C1 (centres unmarked) [Example 342, 4-(4-{[2-(4-chlorophenyl)-4,4-dimethylcyclohex-1-en-1-yl]methyl}piperazin-1-yl)-N-{[5-chloro-6-(5,6,7,8-tetrahydroimidazo[1,2-a]pyridin-6-ylmethoxy)pyridin-3-yl]sulfonyl}-2-(1H-pyrrolo[2,3-b]pyridin-5-yloxy)benzamide] yielded an EC50 [1] of 50.9 nM.

CC1(C)CCC(CN2CCN(c3ccc(C(=O)NS(=O)(=O)c4ccc(NC5CCN(C6CCOCC6)CC5)c([N+](=O)[O-])c4)c(Oc4cnc5[nH]ccc5c4)c3)CC2)=C(c2ccc(Cl)cc2)C1 [Example 3, 4-(4-{[2-(4-chlorophenyl)-4,4-dimethylcyclohex-1-en-1-yl]methyl}piperazin-1-yl)-N-({3-nitro-4-[(1-tetrahydro-2H-pyran-4-ylpiperidin-4-yl)amino]phenyl}sulfonyl)-2-(1H-pyrrolo[2,3-b]pyridin-5-yloxy)benzamide] was tested, and the EC50 [1] was 14.2 nM and the EC50 [3] was 14.2 nM.

— patent US20240043404A1 (AbbVie Inc., priority 2009, published 2024)
